According to US9376376B2, “Substitute diphenylamine compounds use thereof as antitumor agents” (SINOCHEM CORPORATION, priority 2012, dated 2016):

How the values were obtained:
[1] = system: leukemia HL-60 cells; assay: In vitro cell inhibition assay (MTT method), HL-60; assay type: cell-based, human; details: 48 h
Protocol: (§1) The human cancer cell lines used for this assay were lung cancer A549 and leukemia HL-60.
(§2) The A549 or HL-60 cells were picked up from cell incubator, after washed for twice using PBS, cells were digested by 0.25% trypsin, and then add medium to terminate the digestion. After cells were collected using centrifuge and re-suspended, count cells under inverted microscope and add medium to make a density was 5×10^4 cells/mL. After 100 μL aliquots were added to each well of 96-well microtiter plates, cells were cultured in 5% incubator for overnight at 37° C., then the different concentration compounds were added to each well. After incubation for 48 h, MTT solution was added to each well and plates were then incubated for 4 h. The MTT tetrazolium was reduced to formazan by living cells. Then the formazan crystals were dissolved though adding DMSO to each well. The absorbance was read at 570 nm with a microplate reader.

[2] = system: lung cancer A549 cell; assay: In vitro cell inhibition assay (MTT method), A549; assay type: cell-based, human; details: 48 h incubation
Protocol: as §1, §2

SMILES | Proliferation inhibitory effect of the compounds on HL-60 cells (% of Control) ([1]; concentration 0.01 μM) | Proliferation inhibitory effect of the compounds on HL-60 cells (% of Control) ([1]; concentration 0.1 μM) | Proliferation inhibitory effect of the compounds on HL-60 cells (% of Control) ([1]; concentration 1 μM) | Proliferation inhibitory effect of the compounds on HL-60 cells (% of Control) ([1]; concentration 10 μM) | Proliferation inhibitory effect of the compounds on HL-60 cells (% of Control) ([1]; concentration 100 μM) | Proliferation inhibitory effect of the compounds on A549 cell (% of Control) ([2]; 0.01 μM) | Proliferation inhibitory effect of the compounds on A549 cell (% of Control) ([2]; 0.1 μM) | Proliferation inhibitory effect of the compounds on A549 cell (% of Control) ([2]; 1 μM) | Proliferation inhibitory effect of the compounds on A549 cell (% of Control) ([2]; 10 μM) | Proliferation inhibitory effect of the compounds on A549 cell (% of Control) ([2]; 100 μM)
Cc1c(Cl)c([N+](=O)[O-])cc([N+](=O)[O-])c1Nc1ccc(C#N)cc1Cl [Compounds 22-61] | 5.2 % of Control | 7.8 % of Control | 11.0 % of Control | 85.7 % of Control | 89.8 % of Control |  |  |  |  | 
N#Cc1c(Cl)c(Cl)c(Nc2c(Cl)cc([N+](=O)[O-])cc2Br)c(C#N)c1Cl [Compound 6-113] | −3.8 % of Control | 8.8 % of Control | 9.3 % of Control | 85.4 % of Control | 93.1 % of Control | 9.2 % of Control | 2.9 % of Control | 2.6 % of Control | 75.6 % of Control | 93.7 % of Control
N#Cc1c(Cl)c(Cl)c(Nc2cc(C(F)(F)F)ccc2F)c(C#N)c1Cl [Compound 6-35] | −8.3 % of Control | −5.0 % of Control | −1.8 % of Control | 72.3 % of Control | 89.9 % of Control | 0.5 % of Control | −0.8 % of Control | 1.0 % of Control | 58.6 % of Control | 92.7 % of Control
Cc1c(Cl)c([N+](=O)[O-])cc([N+](=O)[O-])c1Nc1c(F)cccc1F [Compound 22-33] | −4.9 % of Control | −1.8 % of Control | 54.3 % of Control | 66.2 % of Control | 81.2 % of Control | −1.6 % of Control | −1.1 % of Control | 61.3 % of Control | 78.7 % of Control | 90.3 % of Control
N#Cc1ccccc1Nc1c(Cl)c(Cl)c(C#N)c(Cl)c1C#N [Compound 6-10] | 21.8 % of Control | 16.1 % of Control | 9.8 % of Control | 78.5 % of Control | 77.1 % of Control |  |  |  |  | 
Cc1c(Cl)c([N+](=O)[O-])cc([N+](=O)[O-])c1Nc1c(Cl)cc(Cl)cc1C#N [Compound 22-120] | 9.6 % of Control | 20.5 % of Control | 19.7 % of Control | 63.1 % of Control | 61.0 % of Control | 0.8 % of Control | 0 % of Control | 9.8 % of Control | 86.8 % of Control | 92.1 % of Control
N#Cc1c(Cl)c(Cl)c(Nc2c(Cl)cc([N+](=O)[O-])cc2Cl)c(C#N)c1Cl [Compound 6-99] | 8.6 % of Control | 34.2 % of Control | 60.2 % of Control | 56.5 % of Control | 54.8 % of Control | 0 % of Control | 0 % of Control | 55.0 % of Control | 83.6 % of Control | 86.3 % of Control
Cc1c(Cl)c([N+](=O)[O-])cc([N+](=O)[O-])c1Nc1c(Cl)cc(C#N)cc1Cl [Compounds 22-104] | 4.1 % of Control | −7.3 % of Control | −2.1 % of Control | 60.5 % of Control | 94.0 % of Control |  |  |  |  | 
COC(=O)c1cc(Cl)c(Nc2c([N+](=O)[O-])cc([N+](=O)[O-])c(Cl)c2C)c(Cl)c1 [Compounds 22-107] | 2.8 % of Control | −9.3 % of Control | −7.0 % of Control | 65.4 % of Control | 94.4 % of Control |  |  |  |  | 
N#Cc1c(Cl)c(Cl)c(Nc2ccccc2)c(C#N)c1Cl [Compound 6-1] | 11.5 % of Control | 10.4 % of Control | 18.8 % of Control | 63.9 % of Control | 61.9 % of Control | 13.1 % of Control | 12.1 % of Control | 16.9 % of Control | 20.4 % of Control | 19.8 % of Control
Cc1c(Cl)c([N+](=O)[O-])cc([N+](=O)[O-])c1Nc1ccc(C(F)(F)F)cc1 [Compounds 22-24] | −22.4 % of Control | −16.7 % of Control | −9.3 % of Control | 82.4 % of Control | 94.3 % of Control |  |  |  |  | 
N#Cc1cc(Cl)cc(Cl)c1Nc1c(Cl)c(Cl)c(C#N)c(Cl)c1C#N [Compound 6-109] | 0.1 % of Control | 2.2 % of Control | 2.9 % of Control | 52.4 % of Control | 94.4 % of Control |  |  |  |  | 
Cc1c(Cl)c([N+](=O)[O-])cc([N+](=O)[O-])c1Nc1c(Cl)cc(Cl)cc1Cl [Compounds 22-98] | −7.3 % of Control | 1.3 % of Control | 9.5 % of Control | 77.7 % of Control | 91.0 % of Control |  |  |  |  | 
N#Cc1c(Cl)c(Cl)c(Nc2ccccc2Cl)c(C#N)c1Cl [Compound 6-3] | −7.1 % of Control | −6.3 % of Control | −2.1 % of Control | 72.2 % of Control | 94.5 % of Control |  |  |  |  | 
Cc1cc([N+](=O)[O-])cc([N+](=O)[O-])c1Nc1c(Cl)cc(C(F)(F)F)cc1Cl [Compounds 30-101] | −6.4 % of Control | −14.2 % of Control | −0.3 % of Control | 57.3 % of Control | 80.7 % of Control |  |  |  |  | 
